Laboratory results published in paper PMC6598400 (Frontiers in Immunology, 2019).
Read-outs that look alike come from different tables or passages of the source.

How the values were obtained:
[1] = tested on: MCP-1 production in U937 cells infected with influenza A virus A/PuertoRico/8/1934; experiment: MCP-1 production in influenza-infected U937 cells (AlphaLISA); format: cell-based, human; conditions: read-out: EC50 MCP-1
in vitro = conditions: human
[2] = tested on: IP-10 production in U937 cells infected with influenza A virus A/PuertoRico/8/1934; experiment: cells; format: cell-based
[3] = tested on: IL-8 production in U937 cells infected with influenza A virus A/PuertoRico/8/1934; experiment: IL-8 production in influenza-infected U937 cells (AlphaLISA); format: cell-based, human; conditions: read-out: EC50 IL-8
[4] = cited from earlier work
[5] = tested on: influenza A virus (A/PR/8/34); experiment: Viral titers in BALF of infected mice (TCID50 assay using MDCK cells); format: in vivo, BALB/c mice
[6] = tested on: MCP-1, KC, IP-10 and IL-6 production in PCLS infected with influenza; experiment: Cytokine production in influenza-infected murine precision-cut lung slices (PCLS); format: cell-based, mouse
[7] = tested on: PR8 strain of influenza virus; experiment: In vitro antiviral assays in U937, A549 cells and murine PCLS; format: cell-based
phospho-p38 = format: cell-based, human
[8] = tested on: influenza A virus (A/PR/8/34); experiment: Inflammatory cell infiltration in lungs/BALF of infected mice (histology, flow cytometry); format: in vivo, BALB/c mice; conditions: 15 mg/kg oral from day 3
Method: BALF samples were washed with FACS buffer (10% BSA in PBS). Red blood cells were lysed using ammonium chloride and […] were seeded into a 96-well U-bottom plate. Cells were pre-incubated with anti-FcgRIII/II (Fc block) in FACS buffer before a 30-min incubation with the following fluorochrome-labeled antibodies (Biolegend): PE-Cy7-conjugated Ly6C (clone HK1.4, dilution 1:200), PE-conjugated CD11b (clone M1/70, dilution 1:200), APC-conjugated Ly6G (clone 1A8, dilution 1:200), and FITC-conjugated CD11c (clone N418, dilution 1:100). Cells were washed with phosphate-buffered saline twice and counterstained with 7AAD (Biolegend) to differentiate apoptotic and dead cells and then analyzed using a LSR Fortessa (Becton Dickinson).
Whole lungs were perfused with 10% neutral buffered formaldehyde in situ. Tissues were then fixed overnight in 10% neutral buffered formaldehyde, embedded in paraffin, and sectioned. Lung specimens were stained with hematoxylin and eosin and then subjected to gross and microscopic pathologic analysis.
Mice were infected as described in Figure 2. […] (A) Hematoxylin & eosin-stained mouse lung sections (scale bar 200 μm) harvested at day 7 post-infection. (B) BALFs were collected from placebo and ponatinib-treated mice (n = 3 per group at each time point) starting day 3 post-infection to monitor total cell counts (mean ± SEM) on days 5 and 7 post-infection. The data are representative of at least three independent experiments.*p < 0.05; **p < 0.01.

IFN-α = IFN-α levels in influenza virus-infected U937 cells; format: cell-based, human
[9] = tested on: influenza A virus (A/PR/8/34); experiment: Mouse lethal influenza model: survival and body weight; format: in vivo, BALB/c mice; conditions: for Body weight loss: started 2 h after infection; for Survival rate: started 2 h after infection with 500 TCID50, monitored to day 20
[10] = tested on: pro-inflammatory cytokines in BALF; set-up: species or system BALB/c mice; conditions: mouse, in vivo
[11] = Homo sapiens, U-937, PR8 MOI = 0.1, 48 h
[12] = U937 cells, PR8 MOI = 0.1, 48 h

CNC(=O)c1cc(Oc2ccc(NC(=O)Nc3ccc(Cl)c(C(F)(F)F)c3)cc2)ccn1 [Sorafenib]
EC50 ([1]; Homo sapiens, U-937, 48 h): 5.8 µM | CC50 (in vitro): 20.7 µM | EC50 [2, 11]: 3.7 µM | EC50 ([3]; Homo sapiens, U-937, 48 h): 0.7 µM

Cc1ccc2nc(NCCN)c3ncc(C)n3c2c1 [BMS-345541]
EC50 ([1]; Homo sapiens, U-937, 48 h): 3.6 µM | CC50 (in vitro): 3.9 µM | EC50 [2, 11]: 4.6 µM | EC50 ([3]; Homo sapiens, U-937, 48 h): 11.7 µM

Cc1ccc(C(=O)Nc2ccc(CN3CCN(C)CC3)c(C(F)(F)F)c2)cc1C#Cc1cnc2cccnn12 [Ponatinib]
Median time to first onset of pancreatitis ([4]; clinical trials): 14 days | Median time to initial onset of arterial occlusive events ([4]; patients, long-term treatment): 13.4 months | Viral titers in BALF vs placebo ([5]; 15 mg/kg oral from day 0 (simultaneously with infection)): significantly higher at day 3 and slightly higher at day 7 | Virus titers in BALF vs placebo ([5]; 15 mg/kg oral from day 3, days 5 and 7 post-infection): no difference | MCP-1, KC, IP-10 and IL-6 productions in infected PCLS [6]: dose-dependently | EC50 ([1]; Homo sapiens, U-937, 48 h): 0.4 µM | Replication of PR8 influenza virus in vitro [7]: did not inhibit the replication | Phosphorylation of p38 (phospho-p38): downregulated | Inflammatory infiltrates in the lungs (histology) ([8]; day 7 post-infection, vs placebo): fewer inflammatory infiltrates | Infiltration of neutrophils in BALF ([8]; days 5 and 7 post-infection): greatly reduced | Monocyte infiltration in BALF ([8]; days 5 and 7 post-infection): not affected | Levels of IFN-α (IFN-α): downregulate | Body weight loss ([9]; 5 mg/kg/d oral): improvement in body weight loss decreased significantly compared to the middle dose group | Survival rate ([9]; 5 mg/kg/d oral): 20% | Body weight loss, delayed administration ([9]; 15 mg/kg oral, started on days 1, 2, 3 or 4 post-infection until day 6): slowed down significantly | Survival rate, delayed administration ([9]; 15 mg/kg oral, started on days 3 and 4 post-infection until day 6): higher survival rates than those treated starting on days 1 and 2 | Survival rate ([9]; 15 mg/kg/d oral): 50% | Body weight loss ([9]; 15 mg/kg/d oral, days 3 to 5): least decline in body weight | Body weight loss ([9]; 25 mg/kg/d oral): improvement of body weight loss was not observed at all | Survival rate ([9]; 25 mg/kg/d oral): 30% | EC50 ([3]; Homo sapiens, U-937, 48 h): 0.3 µM | Concentrations of IL-6, IL-10, MCP-1, Eotaxin, IL-12 (p40) and MIP-1β in BALF [10]: not affected | Expression levels of cytokines and chemokines in BALF (of 17 increased by infection) [10]: 14 cytokines and chemokines were attenuated | IFN-α levels in BALF vs placebo [10]: higher on day 3 and lower on day 5 post-infection | Inhibition of cytokines in BALF except IL-6 and CCL-5, late phase [10]: minor | Inhibition of cytokines in BALF, early phase [10]: no cytokines were inhibited | Levels of Eotaxin, G-CSF, MCP-1, IL-10, TNF-α and IP-10 in BALF [10]: elevated | Levels of type I IFNs in BALF and serum [10]: reduce the levels of type I IFNs | Production of cytokines and chemokines in BALF [10]: 8 cytokines and chemokines was reduced

Nc1cccc(-c2cc3c(Oc4cccc(O)c4)ncnc3[nH]2)c1 [TWS119]
CC50 (U937 cells): 5.4 µM | EC50 [1, 12]: 8 µM | EC50 ([2]; PR8 MOI = 0.1, 48 h): 8.5 µM | EC50 [3, 12]: 9 µM

CC(C)(C)n1nc(-c2ccc(Cl)cc2)c2c(N)ncnc21 [PP2]
CC50 (U937 cells): 40.3 µM | EC50 [1, 12]: 10.4 µM | EC50 ([2]; PR8 MOI = 0.1, 48 h): 3.3 µM | EC50 [3, 12]: > 100 µM

Cc1cn(-c2cc(NC(=O)c3ccc(C)c(Nc4nccc(-c5cccnc5)n4)c3)cc(C(F)(F)F)c2)cn1 [Nilotinib]
EC50 ([1]; Homo sapiens, U-937, 48 h): 1.5 µM | CC50 (in vitro): 5.4 µM | EC50 [2, 11]: 1.1 µM | EC50 ([3]; Homo sapiens, U-937, 48 h): 0.4 µM
